The results in this text go back to patent publication US12503436B2, “Compounds and compositions for treating conditions associated with STING activity” (NOVARTIS PHARMA AG, priority 2021, dated 2025).

A word on the EC50: it is the concentration giving half of the maximal effect.

Sequence of STING (Q86WV6 whole entry R71H/G230A/H232R/R293Q): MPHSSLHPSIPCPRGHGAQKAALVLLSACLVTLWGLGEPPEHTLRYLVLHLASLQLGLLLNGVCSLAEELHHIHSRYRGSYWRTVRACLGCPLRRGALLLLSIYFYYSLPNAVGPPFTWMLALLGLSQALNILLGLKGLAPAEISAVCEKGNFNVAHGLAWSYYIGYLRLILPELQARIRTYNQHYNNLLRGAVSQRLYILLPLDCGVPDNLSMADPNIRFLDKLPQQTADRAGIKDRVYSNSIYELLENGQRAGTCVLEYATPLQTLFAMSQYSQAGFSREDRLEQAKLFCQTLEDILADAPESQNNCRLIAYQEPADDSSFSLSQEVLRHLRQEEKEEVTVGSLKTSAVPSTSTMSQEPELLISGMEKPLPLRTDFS

For this assay, the target named is STING (Homo sapiens, UniProt Q86WV6, G230A/H232R/R293Q/R71H). Briefly: STING reporter assay in THP1-Dual KO-IFNAR2 cells (2′3′cGAMP stimulation, luciferase reporter). Format: cell-based. Conditions: 15 μM 2′3′cGAMP stimulation, 24 h, read-out: Pharmaron, THP1_IFNAR2 STING 24 h Luci Normalized: GeoMean EC50. How it is done:
STING pathway activation by the compounds described herein was measured using THP1-Dual™ cells (KO-IFNAR2).
THP1-Dual™ KO-IFNAR2 Cells (obtained from InvivoGen) were maintained in RPMI, 10% FCS, 5 ml P/S, 2 mM L-glut, 10 mM Hepes, and 1 mM sodium pyruvate. Compounds were spotted in empty 384 well tissue culture plates (Greiner 781182) by Echo for a final concentration of 0.0017-100 μM. Cells were plated into the TC plates at 40 μL per well, 2×10E6 cells/mL. For activation with STING ligand, 2′3′cGAMP (MW 718.38, obtained from Invivogen), was prepared in Optimem media.
The following solutions were prepared for each 1×384 plate: • Solution A: 2 mL Optimem with one of the following stimuli: • 60 μL of 10 mM 2′3′cGAMP→150 μM stock • Solution B: 2 mL Optimem with 60 μL Lipofectamine 2000→Incubate 5 min at RT
2 mL of solution A and 2 ml Solution B was mixed and incubated for 20 min at room temperature (RT). 20 μL of transfection solution (A+B) was added on top of the plated cells, with a final 2′3′cGAMP concentration of 15 μM. The plates were then centrifuged immediately at 340 g for 1 minute, after which they were incubated at 37° C., 5% CO2, >98% humidity for 24 h. Luciferase reporter activity was then measured. EC50 values were calculated by using standard methods known in the art.
Luciferase reporter assay: 10 μL of supernatant from the assay was transferred to white 384-plate with flat bottom and squared wells. One pouch of QUANTI-Luc™ Plus was dissolved in 25 mL of water. 100 μL of QLC Stabilizer per 25 mL of QUANTI-Luc™ Plus solution was added. 50 μL of QUANTI-Luc™ Plus/QLC solution per well was then added. Luminescence was measured on a Platereader (e.g., Spectramax I3X (Molecular Devices GF3637001)).
Luciferase reporter activity was then measured. EC50 values were calculated by using standard methods known in the art.
Background: A reporter such as luciferase makes a cellular process visible.
Turning to “3-methyl-N-(5-(2-((3aR,5r,6aS)-2-(2,2,2-trifluoroethyl)octahydrocyclopenta[c]pyrrol-5-yl)ethoxy)-1H-indol-3-yl)oxetane-3-carboxamide [Compound 382]”, the EC50 was 200 to 1000 nM.
To `C[C@H]1C[C@H](C(=O)Nc2c[nH]c3ccc(CCOc4ccc(C(F)(F)F)cc4)cc23)C1` [Compound 392, trans-3-methyl-N-(5-(2-(4-(trifluoromethyl)phenoxy)ethyl)-1H-indol-3-yl)cyclobutane-1-carboxamide] belongs 200 to 1000 nM.
Consider `CC(=O)Nc1c[nH]c2ccc(OCCC3CCN(c4ccc(C(F)(F)F)cn4)CC3)cc12` [Compound 257, N-(5-(2-(1-(5-(trifluoromethyl)pyridin-2-yl)piperidin-4-yl)ethoxy)-1H-indol-3-yl)acetamide], for which the EC50 fell in the range of 200 to 1000 nM.
With `O=C(Nc1c[nH]c2ccc(O[C@H]3C[C@H](c4ccc(C(F)(F)F)cc4)C3)cc12)C1CNC1` [Compound 459, N-{5-[(1R, 3R)-3-[4-(trifluoromethyl)phenyl]cyclobutoxy]-1H-indol-3-yl}azetidine-3-carboxamide] the figure was 5000 to 100000 nM.
To `CC(=O)Nc1c[nH]c2ccc(OC3CCc4cc(C(F)(F)F)ccc4C3)cc12` (stereo not drawn) [Compound 436, N-(5-((6-(trifluoromethyl)-1,2,3,4-tetrahydronaphthalen-2-yl)oxy)-1H-indol-3-yl)acetamide] belongs 40 to 200 nM.
With `CC(=O)Nc1c[nH]c2ccc(CNc3ccc(C(F)(F)F)nc3)cc12` [Compound 125, N-(5-(((6-(trifluoromethyl)pyridin-3-yl)amino)methyl)-1H-indol-3-yl)acetamide] the figure was 200 to 1000 nM; with `CC1(C)OC(C)(C)C1C(=O)Nc1c[nH]c2ccc(OCc3ccc(C(F)(F)F)cc3)cc12` [Compound 496, 2,2,4,4-tetramethyl-N-(5-((4-(trifluoromethyl)benzyl)oxy)-1H-indol-3-yl)oxetane-3-carboxamide], 200 to 1000 nM; with `COC1CC(C(=O)Nc2c[nH]c3ccc(OCCc4ccc(C(F)(F)F)cc4)cc23)C1` (stereo not drawn) [Compound 234, 3-methoxy-N-(5-(4-(trifluoromethyl)phenethoxy)-1H-indol-3-yl)cyclobutane-1-carboxamide], 40 to 200 nM.
Consider `COCCCC(=O)Nc1c[nH]c2ccc(OCCC3CCN(CC(F)(F)F)CC3)cc12` [Compound 121, 4-methoxy-N-(5-(2-(1-(2,2,2-trifluoroethyl)piperidin-4-yl)ethoxy)-1H-indol-3-yl)butanamide], for which the EC50 was 200 to 1000 nM.
With `O=C(Nc1c[nH]c2ccc(O[C@H]3C[C@H](c4ccc(C(F)(F)F)nc4)C3)cc12)[C@H]1C[C@@H](CO)C1` [Compound 552, cis-3-(hydroxymethyl)-N-(5-(trans-3-(6-(trifluoromethyl)pyridin-3-yl)cyclobutoxy)-1H-indol-3-yl)cyclobutane-1-carboxamide] the figure was 200 to 1000 nM.
To `CC1(C(=O)Nc2c[nH]c3ccc(OCCc4ccc(C(F)(F)F)cc4)cc23)CNC1` [Compound 569, 3-methyl-N-(5-(4-(trifluoromethyl)phenethoxy)-1H-indol-3-yl)azetidine-3-carboxamide] belongs 1000 to 5000 nM; to `O=C(Nc1c[nH]c2ccc(OCCc3ccc(C(F)(F)F)cc3)cc12)C1CC1` [Compound 252, N-(5-(4-(trifluoromethyl)phenethoxy)-1H-indol-3-yl)cyclopropanecarboxamide], 40 to 200 nM; to `N#CC1(C(=O)Nc2c[nH]c3ccc(OCc4ccc(C(F)(F)F)cc4)cc23)CC1` [Compound 586, 1-cyano-N-(5-((4-(trifluoromethyl)benzyl)oxy)-1H-indol-3-yl)cyclopropane-1-carboxamide], 200 to 1000 nM.
With `CC1(C(=O)Nc2c[nH]c3ccc(OC[C@@H]4C[C@@H]5CN(CC(F)(F)F)C[C@@H]5C4)cc23)COC1` [Compound 479, 3-methyl-N-(5-(((3aR,5r,6aS)-2-(2,2,2-trifluoroethyl)octahydrocyclopenta[c]pyrrol-5-yl)methoxy)-1H-indol-3-yl)oxetane-3-carboxamide] the figure was 40 to 200 nM.
Turning to `CC(=O)Nc1c[nH]c2ccc(O[C@H]3C[C@@H](c4ccc(C(F)(F)F)nc4)C3)cc12` [Compound 455, N-(5-(cis-3-(6-(trifluoromethyl)pyridin-3-yl)cyclobutoxy)-1H-indol-3-yl)acetamide], the EC50 is 200 to 1000 nM.
To `CC(=O)Nc1c[nH]c2ccc(OCCC3CN(CC(F)(F)F)CC34CC4)cc12` (stereo not drawn) [Compound 478, N-(5-(2-(5-(2,2,2-trifluoroethyl)-5-azaspiro[2.4]heptan-7-yl)ethoxy)-1H-indol-3-yl)acetamide] belongs 1000 to 5000 nM; to `CC1(C(=O)Nc2c[nH]c3ccc(O[C@H]4C[C@H](c5ccc(C(F)(F)F)cc5)C4)cc23)CC1` [Compound 261, 1-methyl-N-(5-(trans-3-(4-(trifluoromethyl)phenyl)cyclobutoxy)-1H-indol-3-yl)cyclopropane-1-carboxamide], 40 to 200 nM.
With `COCC1(C(=O)Nc2c[nH]c3ccc(OCc4ccc(C(F)(F)F)cc4)cc23)CC1` [Compound 319, 1-(methoxymethyl)-N-(5-((4-(trifluoromethyl)benzyl)oxy)-1H-indol-3-yl)cyclopropane-1-carboxamide] the figure was 200 to 1000 nM; with `CC(=O)Nc1c[nH]c2ccc(CCOc3ccc(F)c(C(F)(F)F)c3)cc12` [Compound 470, N-(5-{2-[4-fluoro-3-(trifluoromethyl)phenoxy]ethyl}-1H-indol-3-yl)acetamide], 200 to 1000 nM.
As for `CCC(=O)Nc1c[nH]c2ccc(CCOc3ccc(C)cc3)cc12` [Compound 168, N-(5-(2-(p-tolyloxy)ethyl)-1H-indol-3-yl)propionamide], the EC50 fell in the range of 200 to 1000 nM.
For the molecule `CC1(C(=O)Nc2c[nH]c3ccc(O[C@H]4C[C@@H](c5ccc(C(F)(F)F)cc5)C4)cc23)CCOC1` (stereo partly drawn) [Compound 357, 3-methyl-N-(5-(cis-3-(4-(trifluoromethyl)phenyl)cyclobutoxy)-1H-indol-3-yl)tetrahydrofuran-3-carboxamide], the half-maximal effective concentration (EC50) lay in the range of 200 to 1000 nM.
For `O=C(Nc1c[nH]c2ccc(OCCc3ccc(C(F)(F)F)cc3)cc12)C1COC1` [Compound 163, N-(5-(4-(trifluoromethyl)phenethoxy)-1H-indol-3-yl)oxetane-3-carboxamide], the EC50 is 40 to 200 nM.
As to `O=C(Nc1c[nH]c2ccc(O[C@H]3C[C@@H](c4ccc(C(F)(F)F)cc4)C3)cc12)C1CC(Cl)C1` (stereo partly drawn) [Compound 336, 3-chloro-N-(5-(cis-3-(4-(trifluoromethyl)phenyl)cyclobutoxy)-1H-indol-3-yl)cyclobutane-1-carboxamide], the EC50 lay within 200 to 1000 nM.
To `CC1(C(=O)Nc2c[nH]c3ccc(C(O)CCc4ccc(C(F)(F)F)cc4)cc23)CC1` (stereo not drawn) [Compound 172, N-(5-(1-hydroxy-3-(4-(trifluoromethyl)phenyl)propyl)-1H-indol-3-yl)-1-methylcyclopropane-1-carboxamide] belongs 200 to 1000 nM; to `N#CC1CCC1C(=O)Nc1c[nH]c2ccc(OCC[C@@H]3C[C@@H]4CN(CC(F)(F)F)C[C@@H]4C3)cc12` (stereo partly drawn) [Compound 304, 2-cyano-N-(5-(2-((3aR,5r,6aS)-2-(2,2,2-trifluoroethyl)octahydrocyclopenta[c]pyrrol-5-yl)ethoxy)-1H-indol-3-yl)cyclobutane-1-carboxamide], 200 to 1000 nM.
To `CC(=O)Nc1c[nH]c2ccc(OCCc3ccc(C(F)(F)F)cc3)c(Br)c12` [Compound 350, N-(4-bromo-5-(4-(trifluoromethyl)phenethoxy)-1H-indol-3-yl)acetamide] belongs 1000 to 5000 nM.
With `CC(=O)Nc1c[nH]c2ccc(CCOc3cnc4c(C(F)(F)F)cccc4c3)cc12` [Compound 555, N-(5-(2-((8-(trifluoromethyl)quinolin-3-yl)oxy)ethyl)-1H-indol-3-yl)acetamide] the figure was 1000 to 5000 nM.
Turning to `CC(=O)Nc1c[nH]c2ccc(OCC[C@@H]3[C@H]4CN(CC(F)(F)F)C[C@@H]34)cc12` [Compound 110, N-(5-(2-((1R,5S,6s)-3-(2,2,2-trifluoroethyl)-3-azabicyclo[3.1.0]hexan-6-yl)ethoxy)-1H-indol-3-yl)acetamide], the EC50 lay in the range of 200 to 1000 nM.
With `C[C@]1(C(=O)Nc2c[nH]c3ccc(O[C@H]4C[C@H](c5ccc(C(F)(F)F)cc5)C4)cc23)CC[C@H](O)CC1` (single isomer, unassigned) [Compound 425, trans-4-hydroxy-1-methyl-N-(5-(trans-3-(4-(trifluoromethyl)phenyl)cyclobutoxy)-1H-indol-3-yl)cyclohexane-1-carboxamide] the figure was 200 to 1000 nM; with `CC(=O)Nc1c[nH]c2ccc(CCOc3ccc(C4CCN(CC(F)(F)F)CC4)cc3)cc12` [Compound 170, N-(5-(2-(4-(1-(2,2,2-trifluoroethyl)piperidin-4-yl)phenoxy)ethyl)-1H-indol-3-yl)acetamide], 200 to 1000 nM.
